According to PubChem BioAssay (NCI):
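Grown in 96-well plates, cells were treated for 48 hours with each compound at five concentrations. Insufficient inhibition: endpoint recorded as highest concentration tested. GI50: concentration for 50% inhibition of growth. The concentration for full growth arrest is given as TGI.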

What was measured:
Experiment in all cases: inhibition of tumour cell growth, NCI panel, 48 h
HOP-92 NSCLC = test system: HOP-92 NSCLC
MDA-MB-231 breast = test system: MDA-MB-231 breast
SK-MEL-28 melanoma = test system: SK-MEL-28 melanoma
NCI-H460 lung = test system: NCI-H460 lung
A549 NSCLC = test system: A549 NSCLC
HL-60(TB) leukemia = test system: HL-60(TB) leukemia
IGROV1 ovarian = test system: IGROV1 ovarian
MALME-3M melanoma = test system: MALME-3M melanoma
BT-549 breast = test system: BT-549 breast
T-47D breast = test system: T-47D breast
SK-MEL-2 melanoma = test system: SK-MEL-2 melanoma
OVCAR-8 ovarian = test system: OVCAR-8 ovarian
MOLT-4 leukemia = test system: MOLT-4 leukemia
ACHN renal = test system: ACHN renal
SNB-19 CNS = test system: SNB-19 CNS
OVCAR-4 ovarian = test system: OVCAR-4 ovarian
KM12 colon = test system: KM12 colon
CCRF-CEM leukemia = test system: CCRF-CEM leukemia
HT29 colon = test system: HT29 colon
SR leukemia = test system: SR leukemia
RPMI-8226 leukemia = test system: RPMI-8226 leukemia
HOP-62 NSCLC = test system: HOP-62 NSCLC
NCI/ADR-RES ovarian = test system: NCI/ADR-RES ovarian
HCC-2998 colon = test system: HCC-2998 colon
MCF7 breast = test system: MCF7 breast
RXF 393 renal = test system: RXF 393 renal
DU-145 prostate = test system: DU-145 prostate
SF-295 CNS = test system: SF-295 CNS
MDA-MB-435 = test system: MDA-MB-435
UACC-62 melanoma = test system: UACC-62 melanoma
K-562 leukemia = test system: K-562 leukemia
UO-31 renal = test system: UO-31 renal
M14 melanoma = test system: M14 melanoma
A498 renal = test system: A498 renal
LOX IMVI melanoma = test system: LOX IMVI melanoma
786-0 renal = test system: 786-0 renal
HCT-116 colon = test system: HCT-116 colon
CAKI-1 renal = test system: CAKI-1 renal
NCI-H522 lung = test system: NCI-H522 lung
SNB-75 CNS = test system: SNB-75 CNS
NCI-H226 lung = test system: NCI-H226 lung
OVCAR-3 ovarian = test system: OVCAR-3 ovarian
TK-10 renal = test system: TK-10 renal
SN12C renal = test system: SN12C renal
SW-620 colon = test system: SW-620 colon
SK-OV-3 ovarian = test system: SK-OV-3 ovarian
COLO 205 colon = test system: COLO 205 colon
EKVX NSCLC = test system: EKVX NSCLC
OVCAR-5 ovarian = test system: OVCAR-5 ovarian
HS 578T breast = test system: HS 578T breast
HCT-15 colon = test system: HCT-15 colon
PC-3 prostate = test system: PC-3 prostate
UACC-257 melanoma = test system: UACC-257 melanoma
U251 CNS = test system: U251 CNS
SF-539 CNS = test system: SF-539 CNS
SF-268 CNS = test system: SF-268 CNS
NCI-H23 lung = test system: NCI-H23 lung

SMILES: CC(=O)O[C@@H]1C(=O)N(c2cnccn2)[C@H]1c1ccccc1[N+](=O)[O-]
- GI50 (HOP-92 NSCLC): 356 nM
- TGI (HOP-92 NSCLC): 10900 nM
- GI50 (MDA-MB-231 breast): 351 nM
- TGI (MDA-MB-231 breast): 4850 nM
- GI50 (SK-MEL-28 melanoma): 926 nM
- TGI (SK-MEL-28 melanoma): 27400 nM
- GI50 (NCI-H460 lung): 346 nM
- TGI (NCI-H460 lung): 10800 nM
- GI50 (A549 NSCLC): 410 nM
- TGI (A549 NSCLC): > 100000 nM
- GI50 (HL-60(TB) leukemia): 288 nM
- GI50 (IGROV1 ovarian): 529 nM
- TGI (IGROV1 ovarian): 19000 nM
- GI50 (MALME-3M melanoma): 526 nM
- TGI (MALME-3M melanoma): 40900 nM
- GI50 (BT-549 breast): 295 nM
- TGI (BT-549 breast): 1240 nM
- GI50 (T-47D breast): 18500 nM
- TGI (T-47D breast): > 100000 nM
- GI50 (SK-MEL-2 melanoma): 1960 nM
- TGI (SK-MEL-2 melanoma): > 100000 nM
- GI50 (OVCAR-8 ovarian): 299 nM
- TGI (OVCAR-8 ovarian): 946 nM
- GI50 (MOLT-4 leukemia): 452 nM
- TGI (MOLT-4 leukemia): > 100000 nM
- GI50 (ACHN renal): 596 nM
- TGI (ACHN renal): 17400 nM
- GI50 (SNB-19 CNS): 1860 nM
- TGI (SNB-19 CNS): > 100000 nM
- GI50 (OVCAR-4 ovarian): 720 nM
- TGI (OVCAR-4 ovarian): > 100000 nM
- GI50 (KM12 colon): 362 nM
- TGI (KM12 colon): 19400 nM
- GI50 (CCRF-CEM leukemia): 435 nM
- TGI (CCRF-CEM leukemia): > 100000 nM
- GI50 (HT29 colon): 2540 nM
- TGI (HT29 colon): 6610 nM
- GI50 (SR leukemia): 350 nM
- TGI (SR leukemia): > 100000 nM
- GI50 (RPMI-8226 leukemia): 384 nM
- TGI (RPMI-8226 leukemia): 22800 nM
- GI50 (HOP-62 NSCLC): 1140 nM
- TGI (HOP-62 NSCLC): 18300 nM
- GI50 (NCI/ADR-RES ovarian): 311 nM
- TGI (NCI/ADR-RES ovarian): 7510 nM
- GI50 (HCC-2998 colon): 2100 nM
- TGI (HCC-2998 colon): 10500 nM
- GI50 (MCF7 breast): 352 nM
- TGI (MCF7 breast): > 64200 nM
- GI50 (RXF 393 renal): 520 nM
- TGI (RXF 393 renal): 3560 nM
- GI50 (DU-145 prostate): 512 nM
- TGI (DU-145 prostate): > 100000 nM
- GI50 (SF-295 CNS): 865 nM
- TGI (SF-295 CNS): 12400 nM
- GI50 (MDA-MB-435): 205 nM
- TGI (MDA-MB-435): 456 nM
- GI50 (UACC-62 melanoma): 327 nM
- TGI (UACC-62 melanoma): 18800 nM
- GI50 (K-562 leukemia): 341 nM
- TGI (K-562 leukemia): > 100000 nM
- GI50 (UO-31 renal): 616 nM
- TGI (UO-31 renal): 16300 nM
- GI50 (M14 melanoma): 323 nM
- TGI (M14 melanoma): 5980 nM
- GI50 (A498 renal): > 100000 nM
- TGI (A498 renal): > 100000 nM
- GI50 (LOX IMVI melanoma): 283 nM
- TGI (LOX IMVI melanoma): 1690 nM
- GI50 (786-0 renal): 551 nM
- TGI (786-0 renal): 13400 nM
- GI50 (HCT-116 colon): 330 nM
- TGI (HCT-116 colon): 6770 nM
- GI50 (CAKI-1 renal): 487 nM
- TGI (CAKI-1 renal): 13300 nM
- GI50 (NCI-H522 lung): 184 nM
- TGI (NCI-H522 lung): 436 nM
- GI50 (SNB-75 CNS): 357 nM
- TGI (SNB-75 CNS): 3100 nM
- GI50 (NCI-H226 lung): 527 nM
- TGI (NCI-H226 lung): 9400 nM
- GI50 (OVCAR-3 ovarian): 288 nM
- TGI (OVCAR-3 ovarian): 3300 nM
- GI50 (TK-10 renal): 14000 nM
- TGI (TK-10 renal): 49900 nM
- GI50 (SN12C renal): 432 nM
- TGI (SN12C renal): 13800 nM
- GI50 (SW-620 colon): 396 nM
- TGI (SW-620 colon): 19300 nM
- GI50 (SK-OV-3 ovarian): 781 nM
- TGI (SK-OV-3 ovarian): > 100000 nM
- GI50 (COLO 205 colon): 3020 nM
- TGI (COLO 205 colon): 11800 nM
- GI50 (EKVX NSCLC): 518 nM
- TGI (EKVX NSCLC): > 100000 nM
- GI50 (OVCAR-5 ovarian): 550 nM
- TGI (OVCAR-5 ovarian): 16600 nM
- GI50 (HS 578T breast): 920 nM
- TGI (HS 578T breast): > 100000 nM
- GI50 (HCT-15 colon): 421 nM
- TGI (HCT-15 colon): 14500 nM
- GI50 (PC-3 prostate): 582 nM
- TGI (PC-3 prostate): 25700 nM
- GI50 (UACC-257 melanoma): 992 nM
- TGI (UACC-257 melanoma): 63000 nM
- GI50 (U251 CNS): 366 nM
- TGI (U251 CNS): 10600 nM
- GI50 (SF-539 CNS): 234 nM
- TGI (SF-539 CNS): 575 nM
- GI50 (SF-268 CNS): 566 nM
- TGI (SF-268 CNS): > 69500 nM
- GI50 (NCI-H23 lung): 369 nM
- TGI (NCI-H23 lung): 13000 nM
